# Source: ChEMBL document CHEMBL1201862, “PubChem BioAssay data set” (2004)
#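 Test compounds were applied to cells in 96-well plates for 48 hours at 5 doses. Abbreviation: GI50, concentration required for 50% inhibition of growth.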 Activity calls are given as the source filed them. Rule as the data show it: active = GI50 up to about 1.1 µM and inactive = higher.
# Assays:
# Experiment in all cases: inhibition of tumour cell growth, NCI panel, 48 h
# HCC 2998 = test system: HCC 2998
# TK-10 = test system: TK-10
# SR = test system: SR
# HL-60 = test system: HL-60
# KM12 = test system: KM12
# A498 = test system: A498
# OVCAR-3 = test system: OVCAR-3
# UO-31 = test system: UO-31
# NCI/ADR-RES = test system: NCI/ADR-RES
# CCRF-CEM = test system: CCRF-CEM
# LOX IMVI = test system: LOX IMVI
# MDA-MB-231 = test system: MDA-MB-231
# NCI-H226 = test system: NCI-H226
# NCI-H460 = test system: NCI-H460
# RPMI-8226 = test system: RPMI-8226
# K562 = test system: K562
# MOLT-4 = test system: MOLT-4
# PC-3 = test system: PC-3
# HCT-116 = test system: HCT-116
# UACC-62 = test system: UACC-62
# HOP-62 = test system: HOP-62
# 786-0 = test system: 786-0
# ACHN = test system: ACHN
# OVCAR-8 = test system: OVCAR-8
# OVCAR-4 = test system: OVCAR-4
# HCT-15 = test system: HCT-15
# OVCAR-5 = test system: OVCAR-5
# SNB-75 = test system: SNB-75
# T47D = test system: T47D
# U-251 = test system: U-251
# SW-620 = test system: SW-620
# M14 = test system: M14
# SF-295 = test system: SF-295
# HT-29 = test system: HT-29
# A549 = test system: A549
# Hs-578T = test system: Hs-578T
# MDA-N = test system: MDA-N
# SK-MEL-5 = test system: SK-MEL-5
# SNB-19 = test system: SNB-19
# SF-268 = test system: SF-268
# RXF 393 = test system: RXF 393
# SN12C = test system: SN12C
# SK-OV-3 = test system: SK-OV-3
# NCI-H23 = test system: NCI-H23
# MCF7 = test system: MCF7
# SF-539 = test system: SF-539
# SK-MEL-28 = test system: SK-MEL-28
# MDA-MB-435 = test system: MDA-MB-435
# CAKI-1 = test system: CAKI-1
# COLO 205 = test system: COLO 205
# UACC-257 = test system: UACC-257
# DU-145 = test system: DU-145
# SK-MEL-2 = test system: SK-MEL-2
# HOP-92 = test system: HOP-92
# IGROV-1 = test system: IGROV-1
# EKVX = test system: EKVX
# Malme-3M = test system: Malme-3M
# NCI-H522 = test system: NCI-H522
# BT-549 = test system: BT-549
smiles,measurement,setting,value
COc1cccc(N(CN2C(=O)CCC2OC)C(C)=O)c1 (stereo not given),GI50,HCC 2998,> 100 µM (inactive)
same,GI50,TK-10,> 100 µM (inactive)
same,GI50,SR,> 100 µM (inactive)
same,GI50,HL-60,22.6 µM (inactive)
same,GI50,KM12,> 100 µM (inactive)
same,GI50,A498,> 100 µM (inactive)
same,GI50,OVCAR-3,> 100 µM (inactive)
same,GI50,UO-31,> 100 µM (inactive)
same,GI50,NCI/ADR-RES,> 100 µM (inactive)
same,GI50,CCRF-CEM,> 100 µM (inactive)
same,GI50,LOX IMVI,> 100 µM (inactive)
same,GI50,MDA-MB-231,> 100 µM (inactive)
same,GI50,NCI-H226,> 100 µM (inactive)
same,GI50,NCI-H460,> 100 µM (inactive)
same,GI50,RPMI-8226,> 100 µM (inactive)
same,GI50,K562,> 100 µM (inactive)
same,GI50,MOLT-4,> 100 µM (inactive)
same,GI50,PC-3,> 100 µM (inactive)
same,GI50,HCT-116,> 100 µM (inactive)
same,GI50,UACC-62,> 100 µM (inactive)
same,GI50,HOP-62,> 100 µM (inactive)
same,GI50,786-0,> 100 µM (inactive)
same,GI50,ACHN,> 100 µM (inactive)
same,GI50,OVCAR-8,> 100 µM (inactive)
same,GI50,OVCAR-4,> 100 µM (inactive)
same,GI50,HCT-15,> 100 µM
same,GI50,OVCAR-5,> 100 µM (inactive)
same,GI50,SNB-75,> 100 µM (inactive)
same,GI50,T47D,> 100 µM (inactive)
same,GI50,U-251,> 100 µM (inactive)
same,GI50,SW-620,> 100 µM (inactive)
same,GI50,M14,> 100 µM (inactive)
same,GI50,SF-295,> 100 µM (inactive)
same,GI50,HT-29,> 100 µM (inactive)
same,GI50,A549,> 100 µM (inactive)
same,GI50,Hs-578T,> 100 µM (inactive)
same,GI50,MDA-N,> 100 µM (inactive)
same,GI50,SK-MEL-5,> 100 µM (inactive)
same,GI50,SNB-19,> 100 µM (inactive)
same,GI50,SF-268,> 100 µM (inactive)
same,GI50,RXF 393,> 100 µM (inactive)
same,GI50,SN12C,> 100 µM (inactive)
same,GI50,SK-OV-3,> 100 µM (inactive)
same,GI50,NCI-H23,> 100 µM (inactive)
same,GI50,MCF7,> 100 µM (inactive)
same,GI50,SF-539,> 100 µM (inactive)
same,GI50,SK-MEL-28,> 100 µM (inactive)
same,GI50,MDA-MB-435,> 100 µM (inactive)
same,GI50,CAKI-1,> 100 µM (inactive)
same,GI50,COLO 205,> 100 µM (inactive)
same,GI50,UACC-257,> 100 µM (inactive)
same,GI50,DU-145,> 100 µM (inactive)
same,GI50,SK-MEL-2,> 100 µM (inactive)
same,GI50,HOP-92,> 100 µM (inactive)
CC(=O)c1cc(S(=O)(=O)c2ccc(O)c(C(C)=O)c2)ccc1O,GI50,HCC 2998,58.2 µM (inactive)
same,GI50,TK-10,52 µM (inactive)
same,GI50,SR,33.4 µM (inactive)
same,GI50,KM12,44.9 µM (inactive)
same,GI50,A498,64.4 µM (inactive)
same,GI50,OVCAR-3,> 100 µM (inactive)
same,GI50,UO-31,28.4 µM (inactive)
same,GI50,NCI/ADR-RES,58.7 µM (inactive)
same,GI50,CCRF-CEM,34.4 µM (inactive)
same,GI50,LOX IMVI,70.3 µM (inactive)
same,GI50,IGROV-1,> 100 µM (inactive)
same,GI50,EKVX,> 100 µM (inactive)
same,GI50,MDA-MB-231,> 100 µM (inactive)
same,GI50,NCI-H226,> 100 µM (inactive)
same,GI50,NCI-H460,84.9 µM (inactive)
same,GI50,RPMI-8226,44.4 µM (inactive)
same,GI50,K562,79.4 µM (inactive)
same,GI50,MOLT-4,25.4 µM (inactive)
same,GI50,PC-3,75.5 µM (inactive)
same,GI50,HCT-116,92 µM (inactive)
same,GI50,UACC-62,18.4 µM (inactive)
same,GI50,HOP-62,> 100 µM (inactive)
same,GI50,786-0,98.2 µM (inactive)
same,GI50,ACHN,91 µM (inactive)
same,GI50,OVCAR-8,70 µM (inactive)
same,GI50,OVCAR-4,> 100 µM (inactive)
same,GI50,HCT-15,95.9 µM
same,GI50,OVCAR-5,> 100 µM (inactive)
same,GI50,T47D,51.8 µM (inactive)
same,GI50,U-251,31.6 µM (inactive)
same,GI50,SW-620,> 100 µM (inactive)
same,GI50,M14,67.9 µM (inactive)
same,GI50,SF-295,36.5 µM (inactive)
same,GI50,HT-29,> 100 µM (inactive)
same,GI50,Malme-3M,> 100 µM (inactive)
same,GI50,A549,49.4 µM (inactive)
same,GI50,MDA-N,> 100 µM (inactive)
same,GI50,SK-MEL-5,> 100 µM (inactive)
same,GI50,SNB-19,68.5 µM (inactive)
same,GI50,SF-268,55.6 µM (inactive)
same,GI50,RXF 393,71.4 µM (inactive)
same,GI50,SN12C,> 100 µM (inactive)
same,GI50,NCI-H522,> 100 µM (inactive)
same,GI50,SK-OV-3,66.7 µM (inactive)
same,GI50,NCI-H23,58.1 µM (inactive)
same,GI50,MCF7,67.6 µM (inactive)
same,GI50,SF-539,30.2 µM (inactive)
same,GI50,SK-MEL-28,38.7 µM (inactive)
same,GI50,MDA-MB-435,51.3 µM (inactive)
same,GI50,CAKI-1,> 100 µM (inactive)
same,GI50,COLO 205,> 100 µM (inactive)
same,GI50,UACC-257,> 100 µM (inactive)
same,GI50,DU-145,> 100 µM (inactive)
same,GI50,SK-MEL-2,92 µM (inactive)
same,GI50,HOP-92,> 100 µM (inactive)
same,GI50,BT-549,23.5 µM (inactive)
C=CC1(c2ccc(-c3ccccc3)cc2)OCCO1,GI50,HCC 2998,63.7 µM (inactive)
same,GI50,TK-10,89.1 µM (inactive)
same,GI50,SR,45.9 µM (inactive)
same,GI50,KM12,41.2 µM (inactive)
same,GI50,OVCAR-3,83.4 µM (inactive)
same,GI50,UO-31,> 100 µM (inactive)
same,GI50,NCI/ADR-RES,65.6 µM (inactive)
same,GI50,CCRF-CEM,11.9 µM (inactive)
same,GI50,LOX IMVI,58.9 µM (inactive)
same,GI50,IGROV-1,> 100 µM (inactive)
same,GI50,EKVX,49.2 µM (inactive)
same,GI50,MDA-MB-231,> 100 µM (inactive)
same,GI50,NCI-H226,22.9 µM (inactive)
same,GI50,NCI-H460,> 100 µM (inactive)
same,GI50,RPMI-8226,> 100 µM (inactive)
same,GI50,K562,22.9 µM (inactive)
same,GI50,MOLT-4,40.6 µM (inactive)
same,GI50,PC-3,35 µM (inactive)
same,GI50,HCT-116,47.5 µM (inactive)
same,GI50,UACC-62,26.1 µM (inactive)
same,GI50,HOP-62,> 100 µM (inactive)
same,GI50,786-0,46.8 µM (inactive)
same,GI50,ACHN,> 100 µM (inactive)
same,GI50,OVCAR-8,> 100 µM (inactive)
same,GI50,OVCAR-4,79.4 µM (inactive)
same,GI50,HCT-15,29.5 µM
same,GI50,OVCAR-5,64.4 µM (inactive)
same,GI50,SNB-75,39.1 µM (inactive)
same,GI50,T47D,51.2 µM (inactive)
same,GI50,U-251,54.8 µM (inactive)
same,GI50,SW-620,31.2 µM (inactive)
same,GI50,M14,59.7 µM (inactive)
same,GI50,SF-295,> 100 µM (inactive)
same,GI50,HT-29,28.2 µM (inactive)
same,GI50,Malme-3M,42.8 µM (inactive)
same,GI50,A549,73.8 µM (inactive)
same,GI50,Hs-578T,23.4 µM (inactive)
same,GI50,MDA-N,50.9 µM (inactive)
same,GI50,SK-MEL-5,35 µM (inactive)
same,GI50,SNB-19,25.8 µM (inactive)
same,GI50,SF-268,> 100 µM (inactive)
same,GI50,RXF 393,39.4 µM (inactive)
same,GI50,SN12C,76.2 µM (inactive)
same,GI50,NCI-H522,42 µM (inactive)
same,GI50,SK-OV-3,> 100 µM (inactive)
same,GI50,NCI-H23,34.7 µM (inactive)
same,GI50,MCF7,54.6 µM (inactive)
same,GI50,SF-539,> 100 µM (inactive)
same,GI50,SK-MEL-28,> 100 µM (inactive)
same,GI50,MDA-MB-435,61.2 µM (inactive)
same,GI50,COLO 205,31.3 µM (inactive)
same,GI50,UACC-257,78.9 µM (inactive)
same,GI50,DU-145,> 100 µM (inactive)
same,GI50,SK-MEL-2,16.6 µM (inactive)
same,GI50,HOP-92,34.8 µM (inactive)
